Measured values as given in patent US10576086B2, “Triazine derivatives as interferon-gamma inhibitors” (University of Greenwich, priority 2015, dated 2020).

Legend:
[1] = tested on: IFN-γ production in human peripheral blood mononuclear cells (PBMCs); experiment: Experiment 2: IFN-γ production by PHA-stimulated human PBMCs, ELISA; format: cell-based; conditions: for [IFN-γ]: PHA 5 μg/ml
Description: A similar set of tests were carried out, in which three compounds known as CEN-079(3,5-diamino-6-[2-(3,4,5-trichlorothienyl)]-1,2,4-triazine), CEN-092(3,5-diamino-6-(3,5-bistrifluoromethylphenyl)-1,2,4-triazine) and CEN-216(3,5-diamino-6-(2,3-dichlorophenyl)-2,3(2,5)-dihydro-3(5)-imino-2-(2,2,2-trichloroethyl)-1,2,4-triazine) were compared with lamotrigine. CEN-079, CEN-092 and CEN-216 are within the scope of Formulae 1, 2 and 3.
50 ml of blood from three healthy adult donors was collected by venepuncture in heparinised tubes. The blood samples where centrifuged at 3000 rpm for 15 minutes. The supernatant plasma was collected in a centrifuge tube, and centrifuged at 3000 rpm for a further 10 minutes. The supernatant was then collected in a plain tube, and stored at −70° C. for future use.
The cells from the first centrifuged heparinised tube were diluted 1:1 in RPMI-1640, and mixed by multiple inversions. The cell mixture was then slowly layered, using a sterile plastic 3 ml pipette, along a tube wall containing lymphoprep (Nycomed) at a ratio of 2:1 cells/RPMI-1640:Lymphoprep in a 25 ml universal tube. The mixture was centrifuged at 2400 rpm for 30 minutes, and left to stand for 20 minutes. PBMCs were slowly removed from the interface using a sterile plastic pipette, and collected in a 15 ml centrifuge tube.
The cells were washed twice by diluting in RPMI-1640 with 2 mM L-glutamine, 100 U/ml penicillin and 100 μg/ml streptomycin at a ratio of 1:1. The mixture was centrifuged at 3000 rpm for 15 minutes, and the supernatant decanted. PBMCs were then diluted in RPMI-1640 containing 2 mM L-glutamine, 100 U/ml penicillin and 100 μg streptomycin, to make up a volume of 6 ml for subjects 1 and 2, and 9 ml for subject 3.
Cells were counted using an Improved Neubauer haemocytometer (Hawksley, UK) on a light microscope. 10 μl of cell suspension was loaded onto the haemocytometer using a sterile plastic pipette. Cells were counted in five out of 25 1 mm squares, from which the total cell count was calculated.
5 μg/ml PHA was used as a T cell activating agent for the production of IFN-γ. The PBMCs were treated with the four test compounds (lamotrigine, CEN-079, CEN-092, CEN-216) at concentrations of 10 μM, 30 μM and 300 μM to assess their effects on IFN-γ production by the stimulated T cells.
The tests were carried out as for Experiment 1, in which 2×10^6 PBMC/ml, 25 μl of 5% autologous plasma, and 2.63 μl of 5 μg/ml PHA were used. Test compound at each concentration was then added, except for one control case.
10 μM solutions were obtained by adding 1.05 μl of a 5 mM solution of the compounds to the above PBMC-containing solution. 30 μM solutions were obtained by adding 3.15 μl of the 5 mM solution of the compounds. 300 μM solutions were obtained by adding […] solutions of the compounds.
The tubes were covered, gently shaken to mix the contents, and incubated for 24 hours at 37° C. The tubes were then centrifuged at 2500 rpm for 10 minutes. The supernatant was collected in a 3 ml plastic pipette, and aliquots were stored at −70° C. before being analysed.
The test was performed according to the supplier's instructions. Donor samples were diluted 1:1 in phosphate buffered […] (PBS) and assayed simultaneously with IFN-γ standard samples, in duplicate. The standard curve ranged from 15.6 pg/ml to 1000 pg/ml.
A 96-well multiwell microplate (high binding Costar) was prepared, by diluting a capture antibody (720 μg/ml of mouse anti-human IFN-γ) in PBS to a working concentration of 4.0 μg/ml. 100 μl was immediately coated on each well, and left overnight at room temperature. The wells were washed three times in wash buffer, using microplate autowasher (LT-3000, LabTech International Ltd). The remainder of the wash buffer in the wells was removed by blotting on to clean paper towels. The plate was blocked by adding 300 μl Block buffer (1% BSA in PBS) to each well and incubated at room temperature for 1 hour. […]

PBMCs = experiment: Experiment 1: PBMC viability, trypan blue exclusion; format: cell-based, human; conditions: after 24 h incubation
Description: Cell viability was checked using trypan blue exclusion, using 0.04% trypan blue solution (0.4% trypan blue solution (Sigma, UK) diluted 10× with PBS). 10 μl trypan blue solution was mixed with 10 μl cell suspension, and after 5 minutes was mounted onto the haemocytometer. The total number of cells, and the total number of viable (colourless) cells were counted in three 1 mm squares. Viability was greater than 85% in all cases.
The tubes were incubated at 37° C. for 24 hours under a 5% CO2 atmosphere. After incubation, the cells (>75% viable according to trypan blue test) were centrifuged at 3000 prm for 10 minutes, and the cell-free supernatants were collected and stored at −70° C. before analysis for IFN-γ.

SMILES: Nc1nnc(-c2cccc(Cl)c2Cl)c(N)n1 [Lamotrigine, 3,5-diamino-6-(2,3-dichlorophenyl)-1,2,4-triazine]
- [IFN-γ] vs control ([1]; 10 μM, Subject 1, 24 h): 104.7%
- [IFN-γ] ([1]; 10 μM, Subject 1, 24 h): 732 pg/mL
- [IFN-γ] vs control ([1]; 10 μM, Subject 2, 24 h): 78.6%
- [IFN-γ] ([1]; 10 μM, Subject 2, 24 h): 1591.5 pg/mL
- [IFN-γ] vs control ([1]; 10 μM, Subject 3, 24 h): 74.8%
- [IFN-γ] ([1]; 10 μM, Subject 3, 24 h): 1590.0 pg/mL
- [IFN-γ] vs control ([1]; 30 μM, Subject 1, 24 h): 65%
- [IFN-γ] ([1]; 30 μM, Subject 1, 24 h): 454 pg/mL
- [IFN-γ] vs control ([1]; 30 μM, Subject 2, 24 h): 69.1%
- [IFN-γ] ([1]; 30 μM, Subject 2, 24 h): 1400.5 pg/mL
- [IFN-γ] vs control ([1]; 30 μM, Subject 3, 24 h): 39.2%
- [IFN-γ] ([1]; 30 μM, Subject 3, 24 h): 833.0 pg/mL
- [IFN-γ] vs control ([1]; 300 μM, Subject 1, 24 h): 8.5%
- [IFN-γ] ([1]; 300 μM, Subject 1, 24 h): 59.5 pg/mL
- [IFN-γ] vs control ([1]; 300 μM, Subject 2, 24 h): 10.6%
- [IFN-γ] ([1]; 300 μM, Subject 2, 24 h): 215.0 pg/mL
- [IFN-γ] vs control ([1]; 300 μM, Subject 3, 24 h): 8.7%
- [IFN-γ] ([1]; 300 μM, Subject 3, 24 h): 186.0 pg/mL
- inhibition of IFN-γ production in PBMCs (in words) ([1]; Experiment 2, human PBMCs): shown to be an inhibitor of IFN-γ production in PBMCs
- IC50 ([1]; PBMC, human PBMCs, PHA-stimulated, read-out: IC50 (concentration to inhibit IFN-γ production by 50%)): 43 µM
- effect on PBMC viability (PBMCs): did not appear to alter PBMC viability
